Measurements as given in patent US7902373B2 (Pfizer Inc, priority 2006, dated 2011).

molecular target: human recombinant H-PGDS (Homo sapiens, UniProt O60760); test: Fluorescence intensity h-PGDS TBA enzyme assay; type: biochemical; conditions: Examples up to 622 (and 3a, 3b)
Sequence (O60760 whole entry): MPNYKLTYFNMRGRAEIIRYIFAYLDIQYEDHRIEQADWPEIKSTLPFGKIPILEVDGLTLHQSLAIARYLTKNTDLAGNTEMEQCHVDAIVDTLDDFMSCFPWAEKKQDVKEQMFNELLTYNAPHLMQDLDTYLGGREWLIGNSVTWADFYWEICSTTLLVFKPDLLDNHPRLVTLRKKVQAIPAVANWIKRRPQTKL

Compound | IC50 [nM]
Cc1ncc(CN2CCC(NC(=O)c3ccc(-c4cccc(F)c4)nc3)CC2)cn1 [Example 443, 6-(3-Fluorophenyl)-N-{1-[(2-methylpyrimidin-5-yl)methyl]piperidin-4-yl}nicotinamide] | 1.59
Cc1nc2ccc(Cl)cn2c1CN1CCC(NC(=O)c2ccc(-c3cccc(F)c3)nc2)CC1 [Example 445, N-{1-[(6-Chloro-2-methylimidazo[1,2-a]pyridin-3-yl)methyl]piperidin-4-yl}-6-(3-fluorophenyl)nicotinamide] | 4.24
O=C(NC1CCN(Cc2nc3cccc4c3n2CCC4)CC1)c1ccc(-c2cccc(F)c2)nc1 [Example 448, N-[1-(5,6-Dihydro-4H-imidazo[4,51-ij]quinolin-2-ylmethyl)piperidin-4-yl]-6-(3-fluorophenyl)nicotinamide] | 2.45
Cn1c(CN2CCC(NC(=O)c3ccc(-c4cccc(F)c4)nc3)CC2)nc2cc(F)c(F)cc21 [Example 449, N-{1-[(5,6-Difluoro-1-methyl-1H-benzimidazol-2-yl)methyl]piperidin-4-yl}-6-(3-fluorophenyl)nicotinamide] | 2.8
O=C(NC1CCN(Cc2ccnc3cccnc23)CC1)c1ccc(-c2cccc(F)c2)nc1 [Example 450, 6-(3-Fluorophenyl)-N-[1-(1,5-naphthyridin-4-ylmethyl)piperidin-4-yl]nicotinamide] | 2.05
O=C(NC1CCN(Cc2ccc(CN3CCOCC3)cc2)CC1)c1ccc(-c2cccc(F)c2)nc1 [Example 453, 6-(3-Fluorophenyl)-N-{1-[4-(morpholin-4-ylmethyl)benzyl]piperidin-4-yl}nicotinamide] | 1.42
O=C(NC1CCN(Cc2nc3cccc4c3n2CC=C4)CC1)c1ccc(-c2cccc(F)c2)nc1 [Example 456, 6-(3-Fluorophenyl)-N-[1-(4H-imidazo[4,51-ij]quinolin-2-ylmethyl)piperidin-4-yl]nicotinamide] | 2.05

Now those with a lower IC50, led by results:

IC50 [nM] | Compound
0.135 | Cc1nc(C)c(CN2CCC(NC(=O)c3ccc(-c4cccc(F)c4)nc3)CC2)nc1C [Example 444, 6-(3-Fluorophenyl)-N-{1-[(3,5,6-trimethylpyrazin-2-yl)methyl]piperidin-4-yl}nicotinamide]
0.891 | Cc1ncc(CN2CCC(NC(=O)c3ccc(-c4cccc(F)c4)nc3)CC2)s1 [Example 446, 6-(3-Fluorophenyl)-N-{1-[(2-methyl-1,3-thiazol-5-yl)methyl]piperidin-4-yl}nicotinamide]
1.1 | COCn1c(CN2CCC(NC(=O)c3ccc(-c4cccc(F)c4)nc3)CC2)nc2ccccc21 [Example 447, 6-(3-Fluorophenyl)-N-(1-{[1-(methoxymethyl)-1H-benzimidazol-2-yl]methyl}piperidin-4-yl)nicotinamide]
0.88 | O=C(NC1CCN(Cc2ccnc3nccnc23)CC1)c1ccc(-c2cccc(F)c2)nc1 [Example 451, 6-(3-Fluorophenyl)-N-[1-(pyrido[2,3-b]pyrazin-8-ylmethyl)piperidin-4-yl]nicotinamide]
0.724 | O=C(NC1CCN(Cc2ccnc3ncccc23)CC1)c1ccc(-c2cccc(F)c2)nc1 [Example 452, 6-(3-Fluorophenyl)-N-[1-(1,8-naphthyridin-4-ylmethyl)piperidin-4-yl]nicotinamide]
0.82 | Cc1nnc(-c2ccc(CN3CCC(NC(=O)c4ccc(-c5cccc(F)c5)nc4)CC3)cc2)o1 [Example 454, 6-(3-Fluorophenyl)-N-{1-[4-(5-methyl-1,3,4-oxadiazol-2-yl)benzyl]piperidin-4-yl}nicotinamide]
1.34 | Cc1cnc(CN2CCC(NC(=O)c3ccc(-c4cccc(F)c4)nc3)CC2)cn1 [Example 455, 6-(3-Fluorophenyl)-N-{1-[(5-methylpyrazin-2-yl)methyl]piperidin-4-yl}nicotinamide]
0.76 | CCOC(=O)c1csc(CN2CCC(NC(=O)c3ccc(-c4cccc(F)c4)nc3)CC2)n1 [Example 457, Ethyl 2-{[4-({[6-(3-fluorophenyl)pyridin-3-yl]carbonyl}amino)piperidin-1-yl]methyl}-1,3-thiazole-4-carboxylate]
